Values joined by “and” are separate entries in the source; they are usually repeats but may differ in a detail not shown here. Equal entries are not always repeated.
What was measured:
[1] = Stability of AST-2660 in human plasma at −20° C. and −70° C. for one month (LC-MS/MS); assay type: in vitro ADME
Protocol: (§1) The detection method established in example 4 was used to detect the content of AST-2660 in the human plasma to be tested.
(§2) Matrix: the mixed normal human plasma containing anticoagulant (K2 EDTA) • a: the internal standard working solution: AST-2660-D8 was taken, added with methanol, and diluted to prepare a solution containing about 100 ng per 1 ml. • b: the solution to be tested (no internal standard compound was added to the solution to be tested at this time): it was obtained by taking a blood sample to be tested. • c: the standard working solution (no internal standard compound was added to the standard working solution at this time): an appropriate amount of AST-2660 was taken and accurately weighed, dissolved with methanol, and diluted to prepare a solution containing about 1.0 mg per 1 ml, which was used as the standard working stock solution. An appropriate amount of the standard working stock solution was taken, added with the matrix and diluted to prepare standard working solutions with different concentrations containing about 200 ng, 160 ng, 100 ng, 50 ng, 10 ng, 2.0 ng, 1.0 ng and 0.5 ng per 1 ml, respectively. (The solution was stored at −70° C.) • d: the quality control sample solution: an appropriate amount of AST-2660 was taken and accurately weighed, dissolved with methanol, and diluted to prepare a solution containing about 10 μg per 1 ml, which was used as the quality control working stock solution. An appropriate amount of the quality control working stock solution was taken, added with matrix to prepare quality control working solutions with different concentrations containing about 150 ng, 60 ng, 15 ng, 1.5 ng and 0.5 ng per 1 ml. (The solution was stored at −70° C.)
(§3) The solution to be tested, the standard working solution and the quality control sample solution were thawed at room temperature and mixed uniformly. 100 μl of the above solution was respectively taken, added with 20 μl of the internal standard and 500 μl of methanol, and vortexed for 3 minutes to mix uniformly, and then centrifuged for 10 minutes at 2143 rcf. 450 μl of the supernatant was taken and dried, and 150 μl of methanol was added for redissolution, and sonicated. Then the plates were centrifuged for 3 minutes at 4° C. It was obtained by taking […] of supernatant.
(§4) Liquid phase conditions: A SHARC 1, 3 μm, 2.1*50 mm or chromatograph column with equivalent performance was used; the mobile phase was a methanol solution comprising low content of ammonium acetate; the mobile phase B was acetonitrile; the gradient elution was performed according to the following table, column temperature: 20° C.; injection volume: 5 μl.
(§5) Mass spectrometric conditions: electrospray ion source with negative ion scanning mode; spray potential: −4500 V; ion source temperature: 500° C.; collision energy (CE): −22 eV; declustering potential (DP): −55V; entrance potential (EP): −10V; collision chamber exit potential (CXP): −16V; dwell time: 100 ms; high purity nitrogen was used for all gases; AST-2660 ions pairs: m/z 147.0→m/z 62.9; the internal standard AST-2660-D8 ion pairs: m/z 155.0→m/z 62.9.
(§6) The AST-2660 standard working solution, blank sample, zero concentration sample, sample solution to be tested and quality control sample solution with different concentrations after extraction were respectively taken and injected into LC-MS/MS for detection.
(§7) Calculation results: the relationship function y=f (x) of the ratio of the peak area of the AST-2660 to that of the internal standard was obtained from AST-2660 standard working solutions with different concentrations. The ratio of the peak area of the AST-2660 to that of the internal standard was determined from the solution to be tested after extraction, and substituted into the relationship function y=f (x) to calculate the concentration of the metabolite II in the solution to be tested.

[2] = Experimental table stability of AST-2660 in human plasma at room temperature (LC-MS/MS); assay type: in vitro ADME; conditions: for AST-2660 concentration, Mean value / AST-2660 concentration, single replicates / RE (%) vs nominal: human plasma, room temperature
Protocol: as §1, §2, §3, §4, §5, §6, §7

[3] = QC1 nominal 1.50 ng/ml, 28 days at −20° C.
[4] = QC1 nominal 1.50 ng/ml, 28 days at −70° C.
[5] = QC4 nominal 150 ng/ml, 28 days at −20° C.
[6] = QC4 nominal 150 ng/ml, 28 days at −70° C.
[7] = DilQC (10-fold dilution) nominal 1500 ng/ml, 0 hour
[8] = DilQC (10-fold dilution) nominal 1500 ng/ml, 4 hours
[9] = DilQC (10-fold dilution) nominal 1500 ng/ml, 24 hours
[10] = QC1 nominal 1.50 ng/ml, 4 hours
[11] = QC1 nominal 1.50 ng/ml, 24 hours
[12] = QC4 nominal 150 ng/ml, 24 hours

SMILES: O=P([O-])(N1CC1)N1CC1.[Na+] [AST-2660]
- change of AST-2660 content (in words) ([1]; 28 days of storage at −20° C.): reduced significantly
- change of AST-2660 content (in words) ([1]; 28 days of storage at −70° C.): almost no reduction
- RE (%) vs nominal ([1]; DilQC (10-fold dilution) nominal 1500 ng/ml, 28 days at −20° C.): −32.5%
- RE (%) vs nominal ([1]; DilQC (10-fold dilution) nominal 1500 ng/ml, 28 days at −70° C.): −6.2%
- AST-2660 concentration, Mean value [1, 3]: 1.11 ng/mL
- AST-2660 concentration, single replicates [1, 3]: 1.01 ng/mL and 1.03 ng/mL and 1.14 ng/mL and 1.25 ng/mL
- RE (%) vs nominal [1, 3]: −26.2%
- AST-2660 concentration, Mean value [1, 4]: 1.53 ng/mL
- AST-2660 concentration, single replicates [1, 4]: 1.52 ng/mL and 1.53 ng/mL and 1.59 ng/mL and 1.49 ng/mL
- RE (%) vs nominal [1, 4]: 2.2%
- AST-2660 concentration, Mean value [1, 5]: 146 ng/mL
- AST-2660 concentration, single replicates [1, 5]: 147 ng/mL and 141 ng/mL and 149 ng/mL and 145 ng/mL
- RE (%) vs nominal [1, 5]: −3.0%
- AST-2660 concentration, Mean value [1, 6]: 145 ng/mL
- AST-2660 concentration, single replicates [1, 6]: 142 ng/ml (2×) and 150 ng/ml and 145 ng/ml
- RE (%) vs nominal [1, 6]: −3.5%
- stability (in words) ([2]; human plasma samples at room temperature): not stable
- AST-2660 concentration, Mean value [2, 7]: 1680 ng/mL
- AST-2660 concentration, single replicates [2, 7]: 1610 ng/mL and 1770 ng/mL and 1700 ng/mL and 1640 ng/mL
- RE (%) vs nominal [2, 7]: 12.0%
- AST-2660 concentration, Mean value [2, 8]: 1593 ng/mL
- AST-2660 concentration, single replicates [2, 8]: 1500 ng/mL and 1710 ng/mL and 1600 ng/mL and 1560 ng/mL
- RE (%) vs nominal [2, 8]: 6.2%
- AST-2660 concentration, Mean value [2, 9]: 1455 ng/mL
- AST-2660 concentration, single replicates [2, 9]: 1380 ng/mL and 1500 ng/mL and 1480 ng/mL and 1460 ng/mL
- RE (%) vs nominal [2, 9]: −3.0%
- AST-2660 concentration, Mean value ([2]; QC1 nominal 1.50 ng/ml, 0 hour): 1.42 ng/mL
- AST-2660 concentration, single replicates ([2]; QC1 nominal 1.50 ng/ml, 0 hour): 1.44 ng/mL and 1.32 ng/mL and 1.38 ng/mL and 1.55 ng/mL
- RE (%) vs nominal ([2]; QC1 nominal 1.50 ng/ml, 0 hour): −5.2%
- AST-2660 concentration, Mean value [2, 10]: 1.35 ng/mL
- AST-2660 concentration, single replicates [2, 10]: 1.34 ng/ml (2×) and 1.31 ng/ml and 1.42 ng/ml
- RE (%) vs nominal [2, 10]: −9.8%
- AST-2660 concentration, Mean value [2, 11]: 1.32 ng/mL
- AST-2660 concentration, single replicates [2, 11]: 1.33 ng/mL and 1.28 ng/mL and 1.38 ng/mL and 1.27 ng/mL
- RE (%) vs nominal [2, 11]: −12.3%
- AST-2660 concentration, Mean value ([2]; QC4 nominal 150 ng/ml, 0 hour): 136 ng/mL
- AST-2660 concentration, single replicates ([2]; QC4 nominal 150 ng/ml, 0 hour): 130 ng/mL and 142 ng/mL and 135 ng/mL and 137 ng/mL
- RE (%) vs nominal ([2]; QC4 nominal 150 ng/ml, 0 hour): −9.3%
- AST-2660 concentration, Mean value ([2]; QC4 nominal 150 ng/ml, 4 hours): 138 ng/mL
- AST-2660 concentration, single replicates ([2]; QC4 nominal 150 ng/ml, 4 hours): 130 ng/mL and 141 ng/mL and 136 ng/mL and 145 ng/mL
- RE (%) vs nominal ([2]; QC4 nominal 150 ng/ml, 4 hours): −8.0%
- AST-2660 concentration, Mean value [2, 12]: 125 ng/mL
- AST-2660 concentration, single replicates [2, 12]: 117 ng/mL and 128 ng/mL and 124 ng/mL and 129 ng/mL
- RE (%) vs nominal [2, 12]: −17.0%

— patent US20240140970A1, “A […], AND PREPARATION METHOD AND USE THEREOF” (ASCENTAWITS PHARMACEUTICALS, LTD., priority 2021, published 2024)
